Structures can show the parent of a compound that is named as a salt. Where two headings read alike, the source gives them in different places.

A word on the bioavailability: it is dose-corrected exposure relative to a reference, in per cent.

For data set [1] the following is noted: after oral administration; cited from earlier work.
Data set [2] in a line: Pharmacokinetic test of Beagle dogs. Type of data set: in vivo. The note with it: both sexes, dog, plasma, po, intragastric administration of solution, 2 mg, n=4, read-out: Absolute bioavailability.
Protocol: Sublingual film and intragastric administration: A two-period double crossover test was adopted, and the washout period was 1 week.
The dogs were fasted for 16 hours before administration and had free access to water. After 4 hours of administration, the dogs had free access to water, and food was administered. 2 mL of blood was collected from the forelimb or hindlimb vein before administration (0 h) and 0.033 h, 0.083 h, 0.167 h, 0.25 h, 0.333 h, 0.5 h, 0.75 h, 1 h, 1.5 h, 2 h, 3 h, 4 h, 6 h after administration, and placed in heparin sodium anticoagulation tubes. The collected blood samples were centrifuged immediately (1006×g, 10 min), separated to obtain the plasma and stored at −20° C.

Turning to `C#CCN[C@@H]1CCc2ccccc21` [Rasagiline mesylate], the values for the bioavailability result in data set [1] and in data set [2] were “about 36%” and 11.8%, respectively.

Source of the values: patent publication US20230414499A1, “SUBLINGUAL FILM DOSAGE OF RASAGILINE OR PHARMACEUTICALLY ACCEPTABLE SALT THEREOF, AND PREPARATION METHOD THEREFOR AND USE THEREOF” (priority 2020, published 2023).
